In PubChem BioAssay (NCI):
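Dose response: 5 concentrations. Exposure: 48 h. Format: 96-well plates. Endpoint: linear interpolation; highest concentration if not reached. Here, GI50 denotes the concentration required for 50% inhibition of growth. The concentration for full growth arrest is given as TGI.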

How the values were obtained:
Test in all cases: growth of human tumour cells (NCI), 48 h
HCT-116 colon = tested on: HCT-116 colon
NCI-H226 lung = tested on: NCI-H226 lung
A549 NSCLC = tested on: A549 NSCLC
M14 melanoma = tested on: M14 melanoma
SK-MEL-5 melanoma = tested on: SK-MEL-5 melanoma
OVCAR-4 ovarian = tested on: OVCAR-4 ovarian
MALME-3M melanoma = tested on: MALME-3M melanoma
EKVX NSCLC = tested on: EKVX NSCLC
IGROV1 ovarian = tested on: IGROV1 ovarian
K-562 leukemia = tested on: K-562 leukemia
786-0 renal = tested on: 786-0 renal
NCI-H23 lung = tested on: NCI-H23 lung
UACC-257 melanoma = tested on: UACC-257 melanoma
SK-MEL-2 melanoma = tested on: SK-MEL-2 melanoma
UACC-62 melanoma = tested on: UACC-62 melanoma
HOP-62 NSCLC = tested on: HOP-62 NSCLC
COLO 205 colon = tested on: COLO 205 colon
RXF 393 renal = tested on: RXF 393 renal
MOLT-4 leukemia = tested on: MOLT-4 leukemia
UO-31 renal = tested on: UO-31 renal
SNB-19 CNS = tested on: SNB-19 CNS
HCT-15 colon = tested on: HCT-15 colon
U251 CNS = tested on: U251 CNS
SF-539 CNS = tested on: SF-539 CNS
BT-549 breast = tested on: BT-549 breast
HT29 colon = tested on: HT29 colon
HS 578T breast = tested on: HS 578T breast
SN12C renal = tested on: SN12C renal
NCI/ADR-RES ovarian = tested on: NCI/ADR-RES ovarian
TK-10 renal = tested on: TK-10 renal

SMILES: COc1sc(/C=N/NC(=O)c2[nH]c3ccc(Br)cc3c2-c2ccccc2)cc1Cl
- GI50 (HCT-116 colon): 1740 nM
- TGI (HCT-116 colon): 10.1 µM
- GI50 (NCI-H226 lung): 2120 nM
- TGI (NCI-H226 lung): 8.3 µM
- GI50 (A549 NSCLC): 2640 nM
- TGI (A549 NSCLC): > 100 µM
- GI50 (M14 melanoma): 2120 nM
- TGI (M14 melanoma): > 100 µM
- GI50 (SK-MEL-5 melanoma): 1730 nM
- TGI (SK-MEL-5 melanoma): 4.36 µM
- GI50 (OVCAR-4 ovarian): 6.38 µM
- TGI (OVCAR-4 ovarian): > 100 µM
- GI50 (MALME-3M melanoma): 3.98 µM
- TGI (MALME-3M melanoma): > 100 µM
- GI50 (EKVX NSCLC): 4.49 µM
- TGI (EKVX NSCLC): > 100 µM
- GI50 (IGROV1 ovarian): 3.05 µM
- TGI (IGROV1 ovarian): 30.7 µM
- GI50 (K-562 leukemia): 502 nM
- TGI (K-562 leukemia): > 100 µM
- GI50 (786-0 renal): 2780 nM
- TGI (786-0 renal): 41.9 µM
- GI50 (NCI-H23 lung): 3.72 µM
- TGI (NCI-H23 lung): > 100 µM
- GI50 (UACC-257 melanoma): 5.78 µM
- TGI (UACC-257 melanoma): > 100 µM
- GI50 (SK-MEL-2 melanoma): 1540 nM
- TGI (SK-MEL-2 melanoma): > 100 µM
- GI50 (UACC-62 melanoma): 696 nM
- TGI (UACC-62 melanoma): > 100 µM
- GI50 (HOP-62 NSCLC): 1000 nM
- TGI (HOP-62 NSCLC): 13.1 µM
- GI50 (COLO 205 colon): 294 nM
- TGI (COLO 205 colon): 728 nM
- GI50 (RXF 393 renal): 935 nM
- TGI (RXF 393 renal): > 100 µM
- GI50 (MOLT-4 leukemia): 3.3 µM
- TGI (MOLT-4 leukemia): 26.7 µM
- GI50 (UO-31 renal): 2210 nM
- TGI (UO-31 renal): > 100 µM
- GI50 (SNB-19 CNS): 4.22 µM
- TGI (SNB-19 CNS): > 100 µM
- GI50 (HCT-15 colon): 2960 nM
- TGI (HCT-15 colon): > 100 µM
- GI50 (U251 CNS): 3.39 µM
- TGI (U251 CNS): 86.6 µM
- GI50 (SF-539 CNS): 1230 nM
- TGI (SF-539 CNS): 4.55 µM
- GI50 (BT-549 breast): 3.72 µM
- TGI (BT-549 breast): 8.48 µM
- GI50 (HT29 colon): 1070 nM
- TGI (HT29 colon): 7.46 µM
- GI50 (HS 578T breast): 1730 nM
- TGI (HS 578T breast): 44.4 µM
- GI50 (SN12C renal): 3.16 µM
- TGI (SN12C renal): > 100 µM
- GI50 (NCI/ADR-RES ovarian): 649 nM
- TGI (NCI/ADR-RES ovarian): 4.58 µM
- GI50 (TK-10 renal): 4.48 µM
